# Laboratory results: PubChem BioAssay AID1552 (Sanford-Burnham Center for Chemical Genomics, 2009)
# Activity calls are given as the source filed them. How the calls were made is not given here.
# Molecular target: Ubiquitin-conjugating enzyme E2 N (Homo sapiens) (UniProt P61088)
# Assay: UBE2N binders by NMR, biophysical, purified protein (AID 1552)
# Settings: NMR binding to purified UBE2N
# Chain of Ubiquitin-conjugating enzyme E2 N (Homo sapiens) (P61088 whole entry, looked up): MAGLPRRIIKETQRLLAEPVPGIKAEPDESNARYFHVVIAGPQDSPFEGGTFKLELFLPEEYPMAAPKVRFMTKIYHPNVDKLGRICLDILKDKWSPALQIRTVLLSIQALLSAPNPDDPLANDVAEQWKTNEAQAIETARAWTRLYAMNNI
row,SMILES,Kd
1,CNC(=O)Nc1ccc(C(=O)NC)cc1,> 4 mM (inactive)
2,Nc1ccc2ncsc2c1,> 4 mM (inactive)
3,C[n+]1cc2c3c(ccc2c2ccc4cc5c(cc4c21)OCO5)OCO3,> 4 mM (inactive)
4,CCOC(=O)C1CCN(c2ccc(C#N)cc2)CC1,> 4 mM (inactive)
5,CN(C)CCCN1CNC(=S)NC1,> 4 mM (inactive)
6,Nc1cccc(-c2cnco2)c1,> 4 mM (inactive)
7,COc1c2ccoc2cc2oc(=O)ccc12,> 4 mM (inactive)
8,Cn1cnc2c1c(=O)[nH]c(=O)n2C,> 4 mM (inactive)
9,O=C(O)c1ccc(N2CCOCC2)cc1,> 4 mM (inactive)
10,S=c1nc[nH]c2c1cnn2-c1ccccc1,> 4 mM (inactive)
11,Cc1occc1C(=O)Nc1nnc(C2CCCCC2)s1,> 4 mM (inactive)
12,c1ccc(CNc2ncnc3nc[nH]c23)nc1,> 4 mM (inactive)
13,CC(C)(O)P(C)(=O)c1ccccc1 (stereo unspecified),> 4 mM (inactive)
14,CN1CCN(C(=O)C2CCCNC2)CC1 (stereo unspecified),> 4 mM (inactive)
15,O=C1C[C@@H](c2ccccc2)Oc2cc(O)cc(O)c21,> 4 mM (inactive)
16,C=C1C2CC[C@H]3[C@]4(C)C[C@H](OC5OC(CO)C(OS(=O)(=O)O)C(OS(=O)(=O)O)C5OC(=O)CC(C)C)C[C@@H](C(=O)O)[C@H]4CC[C@]3(C2)[C@H]1O (stereo partly specified),> 4 mM (inactive)
17,Cc1n[nH]c(=S)n(/N=C/c2ccccc2)c1=O,> 4 mM (inactive)
18,CC1(C)NCCN2C(=O)CSC21 (stereo unspecified),> 4 mM (inactive)
19,COc1ccc2c(CC(=O)O)coc2c1,> 4 mM (inactive)
20,C/C=C/C=N/NC(=O)c1ccc(=O)n(C)c1,> 4 mM (inactive)
21,O=C1C=C(Nc2ccc(O)cc2)c2ccccc2C1=O,> 4 mM (inactive)
22,COc1cc2c(cc1OC)C(C)NCC2 (stereo unspecified),> 4 mM (inactive)
23,NC(c1ccccc1)c1ccccn1 (stereo unspecified),> 4 mM (inactive)
24,CC(=O)Oc1ccc2c(c1)c(C(C)=O)c(C)n2C,> 4 mM (inactive)
25,O=C1N=C(N2CCOCC2)S/C1=C\c1cccnc1,> 4 mM (inactive)

row,SMILES,Kd
1,OC1CC2CCC1C2 (stereo unspecified),> 4 mM (inactive)
2,Cc1ccc(C)n1NC(=O)c1ccco1,> 4 mM (inactive)
3,CC(=O)Nc1sc(C)c(C)c1C(N)=O,> 4 mM (inactive)
4,OCc1cccc2c1OCCO2,> 4 mM (inactive)
5,Nc1cccc(-n2cnnn2)c1,> 4 mM (inactive)
6,COc1cc2cc3c4cc(OC)c(OC)cc4cc[n+]3c(C)c2cc1OC,> 4 mM (inactive)
7,OCc1nccn1Cc1ccccc1,> 4 mM (inactive)
8,Cc1cccc(C)c1NC(=O)/C=C/C(=O)O,> 4 mM (inactive)
9,NC(N)=NCCCCN=C(N)N,> 4 mM (inactive)
10,NCc1ccc2c(c1)OCCO2,> 4 mM (inactive)
11,O=c1[nH]c2ccccc2c(=O)n1CCCO,> 4 mM (inactive)
12,C[C@H]1[C@H](C)CC[C@]2(CO)CC[C@]3(C)C(=CCC4[C@@]5(C)CC[C@H](O)C(C)(C)C5CC[C@]43C)[C@H]12 (stereo partly specified),> 4 mM (inactive)
13,O=C1CCCc2c1nc(-c1ccccc1)n2O,> 4 mM (inactive)
14,COc1ccc(-c2cc3nc4n(c(=O)c3s2)CCC4)cc1,> 4 mM (inactive)
15,C=CC(C)(O)CC/C=C(\C)CCC=C(C)C (stereo unspecified),> 4 mM (inactive)
16,N#Cc1cccc(Cn2nnc(-c3ccccc3)n2)c1,> 4 mM (inactive)
17,Cc1c(C)c2c(c(C)c1O)CCC(C)(CCCC(C)CCCC(C)CCCC(C)C)O2 (stereo unspecified),> 4 mM (inactive)
18,O=C(NCCO)NC(=S)c1ccccc1,> 4 mM (inactive)
19,CCOc1nc(C)ccc1-c1noc(-c2ccncc2)n1,> 4 mM (inactive)
20,COc1c(O)cc2c(c1O)[C@H]1O[C@H](CO)[C@@H](O)[C@H](O)[C@@H]1OC2=O,> 4 mM (inactive)
21,O=C1CCNc2ccccc2N1,> 4 mM (inactive)
22,O=C1NCC(=O)N2CCc3ccccc3C12 (stereo unspecified),> 4 mM (inactive)
23,OC1COCc2nc3ccccc3n2C1 (stereo unspecified),> 4 mM (inactive)
24,Cc1ccc(SCc2cc(=O)n3[nH]cnc3n2)cc1,> 4 mM (inactive)
25,Cc1nc(-c2ccc(CO)s2)cs1,> 4 mM (inactive)

row,SMILES,Kd
1,COC(=O)CCSCC(=O)Nc1nnc(C)s1,> 4 mM (inactive)
2,O=C(NCc1ccco1)c1cccc(F)c1,> 4 mM (inactive)
3,Cc1ccc(-c2c(C)n([O-])c3c([n+]2=O)CCCC3)o1,> 4 mM (inactive)
4,CC(CCC(=O)O)[C@H]1CCC2C3CC[C@@H]4C[C@H](O)CC[C@]4(C)C3C[C@H](O)[C@@]21C (stereo partly specified),> 4 mM (inactive)
5,CC(=O)C1=C(O)C(=O)NC1c1ccccc1 (stereo unspecified),> 4 mM (inactive)
6,Fc1cccc(F)c1CN1CCN(c2ncccn2)CC1,> 4 mM (inactive)
7,O=C(CSc1ccnc(=O)[nH]1)NCc1ccccc1,> 4 mM (inactive)
8,O=S1(=O)CCC(NC(=S)Nc2ccccn2)C1 (stereo unspecified),> 4 mM (inactive)
9,COc1ccc2c(c1OC)C(=O)O[C@@H]2[C@@H]1c2cc3c(cc2CCN1C)OCO3,> 4 mM (inactive)
10,Cc1cc(C(=O)Nc2ccon2)cs1,> 4 mM (inactive)
11,CC(=O)OC/C=C(\C)CC/C=C(\C)CC/C=C(\C)CC/C=C(\C)CC/C=C(\C)CC/C=C(\C)CC/C=C(\C)CC/C=C(\C)CCC=C(C)C,> 4 mM (inactive)
12,Cc1nn(C)c(Cl)c1S(=O)(=O)N1CCOCC1,> 4 mM (inactive)
13,CN(C)S(=O)(=O)c1cccc(N)c1,> 4 mM (inactive)
14,CNc1ccccc1C(=O)O,> 4 mM (inactive)
15,Cn1nc(C(C)(C)C)cc1N,> 4 mM (inactive)
16,OCCCc1nc2ccc(C(F)(F)F)cc2[nH]1,> 4 mM (inactive)
17,O=C(O)C1CC(=O)N(Cc2ccc(F)cc2)C1 (stereo unspecified),> 4 mM (inactive)
18,CC(=O)Nc1cc(N2C(=O)C=CC2=O)ccc1Cl,> 4 mM (inactive)
19,O=C1C2CCCCC2C(=O)N1c1ccc(O)cc1 (stereo unspecified),> 4 mM (inactive)
20,CN1C(=O)/C(=C/c2ccccc2O)NC1=S,> 4 mM (inactive)
21,Cc1n[nH]c(=S)[nH]c1=O,> 4 mM (inactive)
22,CCC(=O)NC(=S)Nc1ccc(O)cc1,> 4 mM (inactive)
23,O=C(O)C1(S(=O)(=O)c2ccccc2)CC1,> 4 mM (inactive)
24,CCc1ccccc1OCc1nnc(N)s1,> 4 mM (inactive)
25,CC(C(N)=O)N1C(=O)c2ccccc2C1=O (stereo unspecified),> 4 mM (inactive)

row,SMILES,Kd
1,CC1(C)N([O-])c2cc([N+](=O)[O-])ccc2[N+]1=O,> 4 mM (inactive)
2,COc1c(-c2coc3cc4c(cc3c2=O)CC(OC(C)=O)C(C)(C)O4)ccc2c1C=CC(C)(C)O2 (stereo unspecified),> 4 mM (inactive)
3,CN1CCN(C(=O)c2ccco2)CC1,> 4 mM (inactive)
4,Cc1ccc(-n2ncc(C#N)c2/N=C/N(C)C)cc1,> 4 mM (inactive)
5,Cc1c(C)n2c(SCC(N)=O)nnc2[nH]c1=O,> 4 mM (inactive)
6,Oc1cccc2[nH]ccc12,> 4 mM (inactive)
7,COC(=O)c1ccc(C(=S)N2CCOCC2)cc1,> 4 mM (inactive)
8,NC(=O)c1cc(N)cc(C(N)=O)c1,> 4 mM (inactive)
9,Cn1c(NCc2ccco2)nc2ccccc21,> 4 mM (inactive)
10,CNCc1ccccc1,> 4 mM (inactive)
11,NC(=S)N1CCC(c2ccccc2)=N1,> 4 mM (inactive)
12,O=C(O)Cn1cnc2ccccc2c1=O,> 4 mM (inactive)
13,CC(=O)NC(=S)Nc1ccccc1N1CCOCC1,> 4 mM (inactive)
14,O=C1NC(=S)N/C1=C\c1ccccc1F,> 4 mM (inactive)
15,COc1cccc2onc(N)c12,> 4 mM (inactive)
16,CC(=O)O[C@H]1CCC2(C)C3=C(CCC2C1(C)C)[C@@]1(C)CC[C@@H](C(C)CCC=C(C)C)[C@]1(C)CC3 (stereo partly specified),> 4 mM (inactive)
17,OCc1snnc1-c1ccccc1,> 4 mM (inactive)
18,CCn1c(-c2ccccc2)n[nH]c1=S,> 4 mM (inactive)
19,NC1=NC(=O)/C(=C\c2cccc(C(=O)O)c2)S1,> 4 mM (inactive)
20,O=c1c2ccccc2nc2n1CCCCN2,> 4 mM (inactive)
21,CC1(C)C(=O)CC[C@@]2(C)C1C[C@@H](O)[C@@]1(C)C3=CC(=O)O[C@@H](c4ccoc4)[C@]3(C)CCC21 (stereo partly specified),> 4 mM (inactive)
22,COc1cc(O)cc(/C=C/c2ccccc2)c1,> 4 mM (inactive)
23,Cc1nnc(-n2cnc3ccccc32)c2ccccc12,> 4 mM (inactive)
24,Cc1cc(=O)[nH]c(N)n1,> 4 mM (inactive)
25,Nc1n[nH]c(=S)n1-c1ccccc1,> 4 mM (inactive)

row,SMILES,Kd
1,CC(=O)c1ccc(NC(=O)c2ocnc2C)cc1,> 4 mM (inactive)
2,Cn1c(SCc2ccon2)nc2ccccc2c1=O,> 4 mM (inactive)
3,CC12CNCC(C)(CNC1)C2O (stereo unspecified),> 4 mM (inactive)
4,O=c1ccc2cc(O[C@@H]3O[C@H](CO)[C@@H](O)[C@H](O)[C@H]3O)c(O)cc2o1,> 4 mM (inactive)
5,Cc1cc(C)n2nc(C(=O)Nc3cccnc3)nc2n1,> 4 mM (inactive)
6,CC(O)c1ccc(C(C)O)cc1 (stereo unspecified),> 4 mM (inactive)
7,CC(=O)Nc1nc(C)c(C(C)=O)s1,> 4 mM (inactive)
8,CN1C2C[C@H](OC(=O)[C@H](CO)c3ccccc3)C[C@H]1[C@@H](O)C2,> 4 mM (inactive)
9,Cn1cnc2c(Cl)ncnc21,> 4 mM (inactive)
10,CC(=O)OCC[C@H](C)CCC=C(C)C,> 4 mM (inactive)
11,CC(C)Oc1ccc(NC(N)=O)cc1,> 4 mM (inactive)
12,O=C1CNCc2[nH]c3ccccc3c2N1c1ccccc1,> 4 mM (inactive)
13,OCc1cccc2nonc12,> 4 mM (inactive)
14,CCCCCCCCCCCC[C@H](C(=O)O)[C@@H](C)C(=O)O,> 4 mM (inactive)
15,CC(C)n1c(Nn2cnnc2)nc2ccccc21,> 4 mM (inactive)
16,COc1cccc2c1CCC1=CC(=O)CC[C@@]12C,> 4 mM (inactive)
17,N=c1n(N)c2ccccc2n1CCO,> 4 mM (inactive)
18,NC(=O)c1cn(-c2ccccc2)nc1-c1cccnc1,> 4 mM (inactive)
19,CC(=O)Nc1ccc(S(=O)(=O)N(C)C)cc1,> 4 mM (inactive)
20,COc1ccc2c(c1OC)OC[C@@H](c1ccc(OC)c(OC)c1OC)C2,> 4 mM (inactive)
21,Cn1cnc2ccc([N+](=O)[O-])cc2c1=O,> 4 mM (inactive)
